Among the data in patent US7169932B2 (priority 2001, dated 2007) are Ki, EC50 and melting point values, retold here.

Like-named read-outs stand apart in the source and are kept apart here.

The target of one data set is T1, HIV-1 protease (Q7S) (Human immunodeficiency virus type 1 group M subtype B, UniProt P04585, Q495S).
T1 construct: made in house
Nature of the data set: HIV-1 Protease RET Assay. As to conditions: Ave. Ki (nM), RET assay, Q7S enzyme, pH 4.8, 37 C. The data set is classed as biochemical. The gist of the method:
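Ki values came from a RET assay on refolded Q7S protease (2 nM active dimer) cleaving RE(EDANS)SQNYPIVQK(DABCYL)R at 5 μM, read at ex 340/em 490 nm. Reactions ran 12 min at 37 C in 0.1M sodium acetate pH 4.8, 1M NaCl, 5 mM DTT, 10% DMSO; curves were fit with the Morrison tight-binding equation.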

Data set [1] relates to HIV-1 NL4–3 or HIV-1 NL4–3(184V/L90M). Nature of the data set: Susceptibility assay, p24 ELISA in infected MT-2 cells. As to conditions: Human immunodeficiency virus 1, MT2, 72 h, read-out: EC50 or IC50 (mM). The format is cell-based. Here is the method:
T-cell lines, CEM-SS, and MT-2, and viruses HIV-1 RF and HIV-1 NL4–3 (pNL4–3) were obtained from the National Institutes of Health (AIDS Research and Reference Reagent Program, Bethesda, Md.).
Compounds were tested in phenotypic susceptibility assays at Virologic, Inc., (See Petropoulos C. J., Parkin N. T., Limoli K. L., Lie Y. S., Wrin T., Huang W., Tian H., Smith D., Winslow G. A., Capon D J, Whitcomb J M. 2000, “A novel phenotypic drug susceptibility assay for human immunodeficiency virus type 1,” Antimicrob Agents Chemother 44(4):920–928) or using the assay described here. MT-2 cells were infected with either HIV-1 NL4–3 or HIV-1 NL4–3(184V/L90M) and incubated in the presence of serial 0.5 log dilutions of test compounds. Three days later, culture supernatants were collected and virus production, as determined by p24 ELISA, was assayed. Percent inhibition was calculated as p24 concentration in compound-treated samples as compared to infected, compound-free controls. Inhibition of viral replication is determined by measuring reduction in HIV p24 present in the culture supernatant, using a Beckman-Coulter p24 HIV-1 Ag EIA kit and following the supplied protocol. Absorbance is read on a MRX microplate reader (Dynex Technologies). The EC50 was calculated as the concentration of compound that effected a decrease in the p24 production by infected, compound-treated cells to 50% of that produced by infected, compound-free cells.

Another data set relates to HIV-1. Nature of the data set: Cytopathic Effect (CPE) Inhibition Assay (XTT dye reduction). As to conditions: Human immunodeficiency virus 1, 144 h. The data set is classed as cell-based. The method, boiled down:
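CEM-SS or MT-2 cells infected with HIV-1 RF or NL4–3 (moi 0.025–0.819), 2×10^4 cells/well, incubated six days with half-log compound dilutions. Viability read by XTT formazan at 450 nm; EC50 is the concentration restoring 50% of uninfected-control formazan, CC50 from uninfected treated cells, therapeutic index CC50/EC50.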

The mark [2] stands for this setting: read-out: Ave CPE EC50 (mM), protection of infected cells, six days, XTT.

The Ki is the equilibrium dissociation constant of an inhibitor or competing ligand from its target. In general, EC50 refers to the concentration needed to bring the measured effect to its halfway point. Regarding `C/C=C/CNC(=O)[C@H]1N(C(=O)[C@@H](O)[C@H](Cc2ccccc2)NC(=O)c2cccc(O)c2C)CSC1(C)C` [Example A38, (R)-3-((2S,3S)-2-Hydroxy-3-{[1-(3-hydroxy-2-methyl-phenyl)-methanoyl]-amino}-4-phenyl-butanoyl)-5,5-dimethyl-thiazolidine-4-carboxylic acid (E)-but-2-enylamide], the affinity at HIV-1 protease (Q7S) corresponds to a Ki of 0.17 nM. The EC50 in data set [1] came out at 401 nM; with HIV-1 (setting [2]) it was 78 nM.

In turn, `Cc1c(O)cccc1C(=O)N[C@@H](Cc1ccccc1)[C@H](O)C(=O)N1CSC(C)(C)[C@H]1C(=O)NCc1c(F)cccc1C(F)(F)F` [Example A24, (R)-3-((2S,3S)-2-Hydroxy-3-{[1-(3-hydroxy-2-methyl-phenyl)-methanoyl]-amino}-4-phenyl-butanoyl)-5,5-dimethyl-thiazolidine-4-carboxylic acid fluoro-trifluoromethyl-benzylamide] yielded a Ki on HIV-1 protease (Q7S) of 0.18 nM. Moreover, the EC50 worked out at 831 nM in data set [1] and 104 nM in the data set on HIV-1 (setting [2]).

At HIV-1 protease (Q7S), `C/C=C(\C)CNC(=O)[C@H]1N(C(=O)[C@@H](O)[C@H](Cc2ccccc2)NC(=O)c2cccc(O)c2C)CSC1(C)C` [Example A35, (R)-3-((2S,3S)-2-Hydroxy-3-{[1-(3-hydroxy-2-methyl-phenyl)-methanoyl]-amino}-4-phenyl-butanoyl)-5,5-dimethyl-thiazolidine-4-carboxylic acid ((E)-2-methyl-but-2-enyl)-amide] had a Ki of less than 0.1 nM. Further, the concentration giving a half-maximal response (EC50) in data set [1] turned out to be 63 nM; in the data set with HIV-1 (setting [2]) it was 17 nM.

In turn, `Cc1c(O)cccc1C(=O)N[C@@H](Cc1ccccc1)[C@H](O)C(=O)N1CSC(C)(C)[C@H]1C(=O)NCc1ccccc1O` [Example A44, (R)-3-((2S,3S)-2-Hydroxy-3-{[1-(3-hydroxy-2-methyl-phenyl)-methanoyl]-amino}-4-phenyl-butanoyl)-5,5-dimethyl-thiazolidine-4-carboxylic acid 2-hydroxy-benzylamide] gave an inhibitory constant (Ki) at HIV-1 protease (Q7S) of 0.14 nM. The half-maximal effective concentration (EC50) worked out at 472 nM in data set [1] and 22 nM with HIV-1 (setting [2]).

`Cc1ccccc1CNC(=O)C1N(C(=O)C(O)C(Cc2ccccc2)NC(=O)c2c(C)c(=O)on2C)CSC1(C)C` (stereo not drawn) [Example B19, 2,4-Dimethyl-5-oxo-2,5-dihydro-isoxazole-3-carboxylic acid {1-benzyl-3-[5,5-dimethyl-4-(2-methyl-benzylcarbamoyl)-thiazolidin-3-yl]-2-hydroxy-3-oxo-propyl}-amide]: on HIV-1 protease (Q7S), the Ki is less than 0.1 nM. In addition, the EC50 in data set [1] is 1370 nM; with HIV-1 (setting [2]), 124 nM.

For the molecule `Cc1c(O)cccc1C(=O)N[C@@H](Cc1ccccc1)[C@H](O)C(=O)N1CSC(C)(C)[C@H]1C(=O)NCc1cccc(O)c1` [Example A42, (R)-3-((2S,3S)-2-Hydroxy-3-{[1-(3-hydroxy-2-methyl-phenyl)-methanoyl]-amino}-4-phenyl-butanoyl)-5,5-dimethyl-thiazolidine-4-carboxylic acid 3-hydroxy-benzylamide], affinity at HIV-1 protease (Q7S) was put at a Ki of 0.23 nM. Further, the concentration for a half-maximal effect (EC50) in data set [1] is 307 nM; in the data set on HIV-1 (setting [2]) it was 126 nM.

`CC(C)=CCNC(=O)[C@H]1N(C(=O)[C@@H](O)[C@H](Cc2ccccc2)NC(=O)c2cccc(O)c2C)CSC1(C)C` [Example A32, (R)-3-((2S,3S)-2-Hydroxy-3-{[1-(3-hydroxy-2-methyl-phenyl)-methanoyl]-amino}-4-phenyl-butanoyl)-5,5-dimethyl-thiazolidine-4-carboxylic acid (3-methyl-but-2-enyl)-amide]: the Ki on HIV-1 protease (Q7S) is less than 0.1 nM. For the same molecule, the EC50 in data set [1] is 486 nM; in the data set with HIV-1 (setting [2]), 45 nM.

As to `Cc1ccccc1CN(C)C(=O)[C@H]1N(C(=O)[C@@H](O)[C@H](Cc2ccccc2)NC(=O)c2cccc(O)c2C)CSC1(C)C` [Example A7, 3-[2-Hydroxy-3-(3-hydroxy-2-methyl-benzoylamino)-4-phenyl-butyryl]-5,5-dimethyl-thiiazolidine-4-carboxylic acid methyl-(2-methyl-benzyl)-amide], the Ki on HIV-1 protease (Q7S) is 0.49 nM. The results for the EC50 (in data set [1]; in the data set with HIV-1 (setting [2])) were 832 nM and 104 nM, respectively.

For `Cc1ccccc1CNC(=O)[C@H]1N(C(=O)[C@@H](O)[C@H](Cc2ccccc2)NC(=O)c2cccc(O)c2C)COC1(C)C` [Example C6, (S)-3-((2S,3S)-2-Hydroxy-3-{[1-(3-hydroxy-2-methyl-phenyl)-methanoyl]-amino}-4-phenyl-butanoyl)-5,5-dimethyl-oxazolidine-4-carboxylic acid 2-methyl-benzylamide], the Ki at HIV-1 protease (Q7S) is less than 0.1 nM. Moreover, the EC50 in data set [1] came out at 1480 nM; in the data set with HIV-1 (setting [2]), 164 nM.

The term melting point denotes the temperature of the solid-liquid transition. Turning to `Cc1ccccc1CNC(=O)[C@H]1N(C(=O)[C@@H](O)[C@H](Cc2ccccc2)NC(=O)[C@@H]2CCCO2)CSC1(C)C` [Example B7, (R)-3-{(2S,3S)-2-Hydroxy-4-phenyl-3-[((S)-1-tetrahydro-furan-2-yl-methanoyl)-amino]-butanoyl}-5,5-dimethyl-thiazolidine-4-carboxylic acid 2-methyl-benzylamide], the melting point is 82 to 84 °C. The molecule further came in with a Ki on HIV-1 protease (Q7S) of 1.9 nM. For the same molecule, the EC50 with HIV-1 (read-out: Ave CPE EC50 (mM)) turned out to be 680 nM.

On to `Cc1c(O)cccc1C(=O)N[C@@H](Cc1ccccc1)[C@H](O)C(=O)N1CSC(C)(C)[C@H]1C(=O)NCc1cccc(N(C)C)c1` [Example A39, (R)-3-((2S,3S)-2-Hydroxy-3-{[1-(3-hydroxy-2-methyl-phenyl)-methanoyl]-amino}-4-phenyl-butanoyl)-5,5-dimethyl-thiazolidine-4-carboxylic acid 3-dimethylamino-benzylamide], for which the melting point is 105 to 106 °C. For the same molecule, the Ki at HIV-1 protease (Q7S) was determined as 0.27 nM. In the data set on HIV-1 (read-out: Ave CPE EC50 (mM)), the concentration for a half-maximal effect (EC50) was 367 nM.

The molecule `COCCCC(=O)[C@H]1N(C(=O)[C@@H](O)[C@H](Cc2ccccc2)NC(=O)c2cccc(O)c2C)CSC1(C)C` [Example D3, N-{1-Benzyl-2-hydroxy-3-[4-(4-methoxy-butanoyl)-5,5-dimethyl-thiazolidin-3-yl]-3-oxo-propyl}-3-hydroxy-2-methyl-benzamide] displayed a Ki on HIV-1 protease (Q7S) of 0.5 nM. Also, the concentration giving a half-maximal response (EC50) was found to be 1950 nM in data set [1] and 162 nM with HIV-1 (setting [2]).

The molecule `Cc1ccccc1CNC(=O)C1N(C(=O)C(O)C(Cc2ccccc2)NC(=O)c2cccc(C)c2C)CSC1(C)C` (stereo not drawn) [Example B17, 3-[3-(2,3-Dimethyl-benzoylamino)-2-hydroxy-4-phenyl-butyryl]-5,5-dimethyl-thiazolidine-4-carboxylic acid 2-methyl-benzylamide] returned an inhibition constant (Ki) on HIV-1 protease (Q7S) of 0.42 nM. Also, the EC50 in data set [1] turned out to be 1580 nM; in the data set with HIV-1 (setting [2]) it was 534 nM.

Turning to `COc1ccccc1CNC(=O)[C@H]1N(C(=O)C(O)C(Cc2ccccc2)NC(=O)c2cccc(O)c2C)CSC1(C)C` (stereo partly drawn) [Example A3, (R)-3-(2-Hydroxy-3-{[1-(3-hydroxy-2-methyl-phenyl)-methanoyl]-amino}-4-phenyl-butanoyl)-5,5-dimethyl-thiazolidine-4-carboxylic acid 2-methoxy-benzylamide], the melting point fell in the range of 123 to 125 °C. In addition, the Ki on HIV-1 protease (Q7S) came to 1.7 nM. Also, the concentration for a half-maximal effect (EC50) with HIV-1 (read-out: Ave CPE EC50 (mM)) is 370 nM.

With `Cc1c(O)cccc1C(=O)N[C@@H](Cc1ccccc1)[C@H](O)C(=O)N1CSC(C)(C)[C@H]1C(=O)NCc1cccc(OC(F)(F)F)c1` [Example A25, (R)-3-((2S,3S)-2-Hydroxy-3-{[1-(3-hydroxy-2-methyl-phenyl)-methanoyl]-amino}-4-phenyl-butanoyl)-5,5-dimethyl-thiazolidine-4-carboxylic acid 3-trifluoromethoxy-benzylamide], the melting point lay in the range of 102 to 105 °C. The Ki at HIV-1 protease (Q7S) came out at 5.8 nM. The EC50 with HIV-1 (read-out: Ave CPE EC50 (mM)) was determined as 248 nM.

Turning to `CC/C=C/CNC(=O)[C@H]1N(C(=O)[C@@H](O)[C@H](Cc2ccccc2)NC(=O)c2cccc(O)c2C)CSC1(C)C` [Example A36, (R)-3-((2S,3S)-2-Hydroxy-3-{[1-(3-hydroxy-2-methyl-phenyl)-methanoyl]-amino}-4-phenyl-butanoyl)-5,5-dimethyl-thiazolidine-4-carboxylic acid (E)-pent-2-enylamide], the melting point was 113 to 115 °C. At HIV-1 protease (Q7S), the Ki turned out to be 0.59 nM. Also, in the data set with HIV-1 (read-out: Ave CPE EC50 (mM)), the EC50 was determined as 519 nM.
